US20100035756A1, “TRIAZOLOPHYRIDINE DERIVATIVES AS HERBICIDES” (SYNGENTA LIMITED, priority 2006, published 2010)

Test system: Monocotyledonous and dicotyledonous test plants
Test: Herbicidal action prior to emergence of the plants (pre-emergence action), Example B1
Type: in vivo
Conditions: preemergence application, 250 g/ha, evaluated after 4 weeks, 100%=total damage, 0%=no damage
Method: Monocotyledonous and dicotyledonous test plants are sown in seed trays in standard soil. Immediately after sowing, the test compounds are applied by spraying in the form of an aqueous suspension (prepared from a wettable powder (Example F3, b) according to WO 97/34485) or in the form of an emulsion (prepared from an emulsifiable concentrate (Example F1, c) according to WO 97/34485) in a concentration of 250 g/ha. The test plants are then grown in a greenhouse under optimum conditions. After a 4-week test period, the test is evaluated (100%=total damage to plant; 0%=no damage to plant; NC not evaluated).

Compound | herbicidal damage, ABUTH | herbicidal damage, AMARE | herbicidal damage, BRAPL | herbicidal damage, DIGSA | herbicidal damage, ECHCG | herbicidal damage, SETFA | herbicidal damage, STEME | herbicidal damage, VERPE
O=C(C1=C(O)C2CCC(C2)C1=O)c1ccc(C(F)(F)F)n2ncnc12 (centres unmarked) [2.1] | 100% | 100% | 100% | 100% | 90% | 90% | 70% | 40%
O=C1CCCC(O)=C1C(=O)c1ccc(C(F)(F)F)n2cnnc12 [Compound 3.1] | 100% | 100% | 40% | 100% | 10% | 0% | 70% | 60%
Cc1nc2c(C(=O)C3=C(O)CCCC3=O)ccc(C(F)(F)F)n2n1 [Compound 11.3] | 70% | 40% | 50% | 30% | 0% | 10% | 40% | 40%
O=C1CCCC(O)=C1C(=O)c1ccc(C(F)(F)F)n2c(-c3cccnc3)nnc12 [Compound 3.15] | 10% | 0% | 30% | 30% | 30% | 30% | 60% | 30%
O=C1CCCC(O)=C1C(=O)c1ccc(C(F)(F)F)n2c(OC(F)F)nnc12 [Compound 3.12] | 50% | 100% | 60% | 10% | 0% | 0% | 0% | 
O=C(C1=C(O)C2CCC(C2)C1=O)c1ccc(C(F)(F)F)n2nc(-c3ccc(Cl)cc3)nc12 (centres unmarked) [2.35] | 0% | 0% | 50% | 20% | 0% | 0% | 50% | 0%
CC1(C)C(=O)C(C(=O)c2ccc(C(F)(F)F)n3cnnc23)=C(O)C(C)(C)C1=O [Compound 5.1] | 100% | 100% | 100% | 100% | 90% | 40% | 100% | 80%
O=C1CCCC(O)=C1C(=O)c1ccc(C(F)(F)F)n2c(Cl)nnc12 [Compound 3.2] | 100% | 100% | 0% | 80% | 70% | 0% | 100% | 100%
O=C(C1=C(O)C2CCC(C2)C1=O)c1ccc(C(F)(F)F)n2c(-c3ccc(Cl)cc3)nnc12 (centres unmarked) [Compound 1.35] | 50% | 100% | 100% | 100% | 0% | 30% | 70% | 40%
